Tested on: Glucose Transporter 2 (GLUT2)
Assay: GLUT2 plasma membrane expression in STZ-treated cells (western blotting of membrane fractions, immunofluorescence)
Format: cell-based, rat
Description: To investigate the effect of PLAG on GLUT2 plasma membrane localization, GLUT2 expression and Racl expression in membrane fractions were examined in the same manner as the Western protein blotting (FIGS. 3A to 3B).
In addition, the localization of GLUT2 was observed by immunofluorescence assay. Cells were grown on glass coverslips in 24-well plates and treated with STZ and PLAG. After washing with ice-cold PBS, the cells were fixed with 4% formaldehyde. Permeabilization was not performed to identify only proteins expressed in the cell membrane. The cells were incubated with anti-GLUT2 antibodies (dilution 1:500) and then stained with an Alexa Fluor 488-conjugated secondary antibody (Enzo Life Sciences, dilution 1:1000) and DAPI (Invitrogen). Stained cells were observed under a Zeiss LSM800 confocal microscope (Carl Zeiss, Jena, Germany) (FIG. 3-C).
After treatment with PLAG and PLH(1-palmitoyl-2-linoleoyl-3-hydroxyl-rac-glycerol), apoptosis, intracellular ROS generation and glucose uptake were analyzed by flow cytometry (FIG. 7-B to 7-E). In addition, expression of GLUT2 in membrane fractions was analyzed by Western blotting (FIG.7-F). Data are presented as mean ±SD. ***P<0.001 vs. control, #P<0.05, ##P<0.005 vs. STZ. N.S.: No significance.

CCCCC/C=C\C/C=C\CCCCCCCC(=O)OC(COC(C)=O)COC(=O)CCCCCCCCCCCCCCC (racemic) [PLAG, 1-palmitoyl-2-linoleoyl-3-acetyl-rac-glycerol]
GLUT2 endocytosis / internalization, PLAG vs PLH (Example 8, membrane fractions by western blotting): endocytosis of GLUT2 was promoted
GLUT2 internalization (immunofluorescence) (STZ-treated cells, non-permeabilized, up to 60 min): accelerated GLUT2 internalization was observed
membrane-expressed GLUT2 (time course) (STZ-treated cells, western blotting of membrane fractions, up to 60 min): gradually decreased until 10 min, then recovered and returned to control levels at 60 min
